{"source": "patent US6737383B1", "about": "“Herbicidal oxadiazolidines” (priority 1999, dated 2004)", "key": {"bedstraw": {"tested_on": "bedstraw", "experiment": "Test B pre/postemergence bedstraw", "assay_type": "in vivo, Galium aparine", "conditions": "Preemergence; for Bedstraw plant response rating: scale 0 to 10, 0 is no effect, 10 is complete control", "in_short": "(§1)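 Response is a visual 0-to-10 score relative to untreated plants, where 0 means no effect and 10 means complete control, taken twelve to sixteen days after application. Treatments went onto soil at planting and onto foliage of 1- to 4-leaf plants, using a surfactant-containing non-phytotoxic solvent.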"}, "blackgrass": {"tested_on": "blackgrass", "experiment": "Test B pre/postemergence blackgrass", "assay_type": "in vivo, Alopecurus myosuroides", "in_short": "as §1"}, "surinam grass": {"tested_on": "surinam grass", "experiment": "Test B pre/postemergence surinam grass", "assay_type": "in vivo, Brachiaria decumbens", "in_short": "as §1"}, "cocklebur": {"tested_on": "cocklebur", "experiment": "Test B pre/postemergence cocklebur", "assay_type": "in vivo, Xanthium strumarium", "in_short": "as §1"}, "corn": {"tested_on": "corn", "experiment": "Test B pre/postemergence corn", "assay_type": "in vivo, Zea mays", "in_short": "as §1"}, "crabgrass": {"tested_on": "crabgrass", "experiment": "Test B pre/postemergence crabgrass", "assay_type": "in vivo, Digitaria sanguinalis", "in_short": "as §1"}, "giant foxtail": {"tested_on": "giant foxtail", "experiment": "Test B pre/postemergence giant foxtail", "assay_type": "in vivo, Setaria faberii", "in_short": "as §1"}, "morningglory": {"tested_on": "morningglory", "experiment": "Test B pre/postemergence morningglory", "assay_type": "in vivo, Ipomoea hederacea", "in_short": "as §1"}, "pigweed": {"tested_on": "pigweed", "experiment": "Test B pre/postemergence pigweed", "assay_type": "in vivo, Amaranthus retroflexus", "in_short": "as §1"}, "rape": {"tested_on": "rape", "experiment": "Test B pre/postemergence rape", "assay_type": "in vivo, Brassica napus", "in_short": "as §1"}, "soybean": {"tested_on": "soybean", "experiment": "Test B pre/postemergence soybean", "assay_type": "in vivo, Glycine max", "in_short": "as §1"}, "sugar beet": {"tested_on": "sugar beet", "experiment": "Test B pre/postemergence sugar beet", "assay_type": "in vivo, Beta vulgaris", "in_short": "as §1"}, "velvetleaf": {"tested_on": "velvetleaf", "experiment": "Test B pre/postemergence velvetleaf", "assay_type": "in vivo, Abutilon theophrasti", "in_short": "as §1"}, "wheat": {"tested_on": "wheat", "experiment": "Test B pre/postemergence wheat", "assay_type": "in vivo, Triticum aestivum", "in_short": "as §1"}, "wild oat": {"tested_on": "wild oat", "experiment": "Test B pre/postemergence wild oat", "assay_type": "in vivo, Avena fatua", "in_short": "as §1"}, "purple nutsedge": {"tested_on": "purple nutsedge", "experiment": "Test B pre/postemergence purple nutsedge", "assay_type": "in vivo, Cyperus rotundus", "in_short": "as §1"}, "[1]": {"conditions": "Postemergence, Rate 62 g/ha, scale of 0 to 10, 0 is no effect, 10 is complete control"}, "[2]": {"conditions": "Postemergence, Rate 125 g/ha, scale 0 to 10, 0 is no effect, 10 is complete control"}, "[3]": {"conditions": "Postemergence, Rate 250 g/ha, scale 0 to 10"}, "[4]": {"conditions": "Postemergence, Rate 500 g/ha, scale 0 to 10, 0 is no effect, 10 is complete control"}, "[5]": {"conditions": "Preemergence, Rate 62 g/ha, scale of 0 to 10 where 0 is no effect and 10 is complete control"}, "[6]": {"conditions": "Preemergence, Rate 125 g/ha, scale 0 to 10, 0 is no effect, 10 is complete control"}, "[7]": {"conditions": "Preemergence, Rate 250 g/ha, scale 0 to 10, 0 is no effect, 10 is complete control"}, "[8]": {"conditions": "Preemergence, Rate 500 g/ha, scale of 0 to 10 where 0 is no effect and 10 is complete control"}}, "data": [{"smiles": "CC(Cl)=CCn1c(=O)on(C(=O)N(c2ccc(F)cc2F)C(C)C)c1=O", "note": "[Compound 514]", "values": [{"measurement": "Plant response rating, Bedstraw", "setting": "bedstraw; Rate 62 g/ha, scale of 0 to 10 where 0 is no effect and 10 is complete control", "value": 0}, {"measurement": "Bedstraw plant response rating", "setting": "bedstraw; Rate 250 g/ha", "value": 0}, {"measurement": "Bedstraw plant response rating", "setting": "bedstraw; Rate 500 g/ha", "value": 0}, {"measurement": "Blackgrass plant response rating", "setting": "blackgrass; [1]", "value": 0}, {"measurement": "Blackgrass plant response rating", "setting": "blackgrass; [2]", "value": 3}, {"measurement": "Blackgrass plant response rating", "setting": "blackgrass; [3]", "value": 5}, {"measurement": "Plant response rating, Blackgrass", "setting": "blackgrass; [4]", "value": 5}, {"measurement": "Plant response rating, Blackgrass", "setting": "blackgrass; [5]", "value": 2}, {"measurement": "Blackgrass plant response rating", "setting": "blackgrass; [6]", "value": 2}, {"measurement": "Blackgrass plant response rating", "setting": "blackgrass; [7]", "value": 5}, {"measurement": "Blackgrass plant response rating", "setting": "blackgrass; [8]", "value": 7}, {"measurement": "B. signalgrass plant response rating", "setting": "surinam grass; [1]", "value": 0}, {"measurement": "B. signalgrass plant response rating", "setting": "surinam grass; [2]", "value": 0}, {"measurement": "B. signalgrass plant response rating", "setting": "surinam grass; Postemergence, Rate 250 g/ha, scale 0 to 10, 0 no effect, 10 complete control", "value": 3}, {"measurement": "Plant response rating, B. signalgrass", "setting": "surinam grass; [4]", "value": 5}, {"measurement": "Plant response rating, B. signalgrass", "setting": "surinam grass; [5]", "value": 6}, {"measurement": "B. signalgrass plant response rating", "setting": "surinam grass; [6]", "value": 6}, {"measurement": "B. signalgrass plant response rating", "setting": "surinam grass; [7]", "value": 8}, {"measurement": "B. signalgrass plant response rating", "setting": "surinam grass; Preemergence, Rate 500 g/ha, scale 0 to 10, 0 is no effect, 10 is complete control", "value": 10}, {"measurement": "Cocklebur plant response rating", "setting": "cocklebur; [1]", "value": 0}, {"measurement": "Cocklebur plant response rating", "setting": "cocklebur; [2]", "value": 1}, {"measurement": "Cocklebur plant response rating", "setting": "cocklebur; [3]", "value": 3}, {"measurement": "Plant response rating, Cocklebur", "setting": "cocklebur; [4]", "value": 5}, {"measurement": "Plant response rating, Cocklebur", "setting": "cocklebur; [5]", "value": 0}, {"measurement": "Cocklebur plant response rating", "setting": "cocklebur; [6]", "value": 0}, {"measurement": "Cocklebur plant response rating", "setting": "cocklebur; [7]", "value": 0}, {"measurement": "Cocklebur plant response rating", "setting": "cocklebur; [8]", "value": 0}, {"measurement": "Corn plant response rating", "setting": "corn; [1]", "value": 0}, {"measurement": "Corn plant response rating", "setting": "corn; [2]", "value": 0}, {"measurement": "Corn plant response rating", "setting": "corn; [3]", "value": 0}, {"measurement": "Plant response rating, Corn", "setting": "corn; [4]", "value": 5}, {"measurement": "Plant response rating, Corn", "setting": "corn; [5]", "value": 0}, {"measurement": "Corn plant response rating", "setting": "corn; [6]", "value": 0}, {"measurement": "Corn plant response rating", "setting": "corn; [8]", "value": 5}, {"measurement": "Crabgrass plant response rating", "setting": "crabgrass; [1]", "value": 7}, {"measurement": "Crabgrass plant response rating", "setting": "crabgrass; [2]", "value": 9}, {"measurement": "Crabgrass plant response rating", "setting": "crabgrass; [3]", "value": 9}, {"measurement": "Plant response rating, Crabgrass", "setting": "crabgrass; [4]", "value": 10}, {"measurement": "Plant response rating, Crabgrass", "setting": "crabgrass; [5]", "value": 5}, {"measurement": "Crabgrass plant response rating", "setting": "crabgrass; [6]", "value": 7}, {"measurement": "Crabgrass plant response rating", "setting": "crabgrass; [8]", "value": 10}, {"measurement": "Giant foxtail plant response rating", "setting": "giant foxtail; [1]", "value": 6}, {"measurement": "Giant foxtail plant response rating", "setting": "giant foxtail; [2]", "value": 9}, {"measurement": "Plant response rating, Giant foxtail", "setting": "giant foxtail; [4]", "value": 9}, {"measurement": "Plant response rating, Giant foxtail", "setting": "giant foxtail; [5]", "value": 9}, {"measurement": "Giant foxtail plant response rating", "setting": "giant foxtail; [6]", "value": 10}, {"measurement": "Giant foxtail plant response rating", "setting": "giant foxtail; [8]", "value": 10}, {"measurement": "Morningglory plant response rating", "setting": "morningglory; [1]", "value": 2}, {"measurement": "Morningglory plant response rating", "setting": "morningglory; [2]", "value": 7}, {"measurement": "Plant response rating, Morningglory", "setting": "morningglory; [4]", "value": 7}, {"measurement": "Plant response rating, Morningglory", "setting": "morningglory; [5]", "value": 0}, {"measurement": "Morningglory plant response rating", "setting": "morningglory; [6]", "value": 0}, {"measurement": "Morningglory plant response rating", "setting": "morningglory; [8]", "value": 0}, {"measurement": "Redroot pigweed plant response rating", "setting": "pigweed; [1]", "value": 0}, {"measurement": "Redroot pigweed plant response rating", "setting": "pigweed; [2]", "value": 2}, {"measurement": "Plant response rating, Redroot pigweed", "setting": "pigweed; [4]", "value": 8}, {"measurement": "Plant response rating, Redroot pigweed", "setting": "pigweed; [5]", "value": 7}, {"measurement": "Redroot pigweed plant response rating", "setting": "pigweed; [6]", "value": 8}, {"measurement": "Redroot pigweed plant response rating", "setting": "pigweed; [8]", "value": 10}, {"measurement": "Rape plant response rating", "setting": "rape; [1]", "value": 6}, {"measurement": "Rape plant response rating", "setting": "rape; [2]", "value": 6}, {"measurement": "Plant response rating, Rape", "setting": "rape; [4]", "value": 8}, {"measurement": "Plant response rating, Rape", "setting": "rape; [5]", "value": 0}, {"measurement": "Rape plant response rating", "setting": "rape; [6]", "value": 0}, {"measurement": "Rape plant response rating", "setting": "rape; [8]", "value": 8}, {"measurement": "Soybean plant response rating", "setting": "soybean; [1]", "value": 6}, {"measurement": "Soybean plant response rating", "setting": "soybean; [2]", "value": 7}, {"measurement": "Plant response rating, Soybean", "setting": "soybean; [4]", "value": 7}, {"measurement": "Plant response rating, Soybean", "setting": "soybean; [5]", "value": 0}, {"measurement": "Soybean plant response rating", "setting": "soybean; [6]", "value": 0}, {"measurement": "Soybean plant response rating", "setting": "soybean; [8]", "value": 0}, {"measurement": "Sugarbeets plant response rating", "setting": "sugar beet; [1]", "value": 3}, {"measurement": "Sugarbeets plant response rating", "setting": "sugar beet; [2]", "value": 3}, {"measurement": "Plant response rating, Sugarbeets", "setting": "sugar beet; [4]", "value": 5}, {"measurement": "Plant response rating, Sugarbeets", "setting": "sugar beet; [5]", "value": 0}, {"measurement": "Sugarbeets plant response rating", "setting": "sugar beet; [6]", "value": 5}, {"measurement": "Sugarbeets plant response rating", "setting": "sugar beet; [8]", "value": 6}, {"measurement": "Velvetleaf plant response rating", "setting": "velvetleaf; [1]", "value": 2}, {"measurement": "Velvetleaf plant response rating", "setting": "velvetleaf; [2]", "value": 2}, {"measurement": "Plant response rating, Velvetleaf", "setting": "velvetleaf; [4]", "value": 5}, {"measurement": "Plant response rating, Velvetleaf", "setting": "velvetleaf; [5]", "value": 0}, {"measurement": "Velvetleaf plant response rating", "setting": "velvetleaf; [6]", "value": 0}, {"measurement": "Velvetleaf plant response rating", "setting": "velvetleaf; [8]", "value": 5}, {"measurement": "Wheat plant response rating", "setting": "wheat; [1]", "value": 0}, {"measurement": "Wheat plant response rating", "setting": "wheat; [2]", "value": 0}, {"measurement": "Plant response rating, Wheat", "setting": "wheat; [4]", "value": 0}, {"measurement": "Plant response rating, Wheat", "setting": "wheat; [5]", "value": 0}, {"measurement": "Wheat plant response rating", "setting": "wheat; [6]", "value": 0}, {"measurement": "Wheat plant response rating", "setting": "wheat; [8]", "value": 4}, {"measurement": "Wild oats plant response rating", "setting": "wild oat; [1]", "value": 0}, {"measurement": "Wild oats plant response rating", "setting": "wild oat; [2]", "value": 0}, {"measurement": "Plant response rating, Wild oats", "setting": "wild oat; [4]", "value": 3}, {"measurement": "Plant response rating, Wild oats", "setting": "wild oat; [5]", "value": 3}, {"measurement": "Wild oats plant response rating", "setting": "wild oat; [6]", "value": 4}, {"measurement": "Wild oats plant response rating", "setting": "wild oat; [8]", "value": 6}, {"measurement": "Nutsedge plant response rating", "setting": "purple nutsedge; [1]", "value": 0}, {"measurement": "Nutsedge plant response rating", "setting": "purple nutsedge; [2]", "value": 0}, {"measurement": "Plant response rating, Nutsedge", "setting": "purple nutsedge; [4]", "value": 0}, {"measurement": "Plant response rating, Nutsedge", "setting": "purple nutsedge; [5]", "value": 0}, {"measurement": "Nutsedge plant response rating", "setting": "purple nutsedge; [8]", "value": 0}]}]}
